How the values were obtained:
[1] = target: T1, E. coli F1F0 ATP synthase (Escherichia coli, UniProt P0ABB0+P0ABB4); test: ATP synthesis in proteoliposomes, luciferin/luciferase luminescence; assay type: biochemical; design: gene atpA; with ATP synthase gamma chain; ATP synthase subunit delta; ATP synthase epsilon chain; ATP synthase subunit a; ATP synthase subunit b; ATP synthase subunit c; conditions: 250 μM ADP, 40 mM KH2PO4, 5 mM MgCl2, 1.5 mM NAD+, 750 μM NADPH; 50 mM HEPES pH 7.5, 100 mM KCl; co-reconstituted with transhydrogenase
[2] = target: T1, E. coli F1F0 ATP synthase; design: gene atpA; conditions: 250 μM ATP, 2-4 mM MgCl2; 50 mM HEPES pH 7.5, 100 mM KCl; co-reconstituted with transhydrogenase

| SMILES | ATP synthesis in proteoliposomes, luciferin/luciferase luminescence [1] | ATP-driven proton pumping in proteoliposomes (ACMA quench); APADH absorbance 375 [2] |
| --- | --- | --- |
| Nc1ncnc2c1ncn2[C@@H]1O[C@H](COP(=O)(O)OP(=O)(O)O)[C@@H](O)[C@H]1O [ADP] | upon addition of NADPH, continuous ATP synthesis is observed |  |
| Nc1ncnc2c1ncn2[C@@H]1O[C@H](COP(=O)(O)OP(=O)(O)OP(=O)(O)O)[C@@H](O)[C@H]1O [ATP] |  | addition of ATP energized inward proton pumping by ATP synthase |

Source: PMC8551311, “Energy transfer between the nicotinamide nucleotide transhydrogenase and ATP synthase of Escherichia coli” (Scientific Reports, 2021)
